One experiment has as its target NG2 (Rattus norvegicus, UniProt Q00657). Briefly: Binding of peptide to NG2 (no method given).
The test system of experiment [1] is recombinant fragment of rat NG2 (NG2ECΔ3). Briefly: Biopanning of linear decapeptide phage library on NG2-coated wells. The note with it: for selection/enrichment of NG2-binding sequences in in vitro panning: five successive rounds on NG2-coated wells. The class given is binding. The text has this:
To identify peptide motifs capable of interacting with NG2, recombinant NG2 fragments consisting of the N-terminal two-thirds of the extracellular domain of NG2 proteoglycan were generated. Briefly, a recombinant fragment of rat NG2 consisting of the N-terminal two-thirds of the extracellular domain (NG2ECΔ3) was purified from transfected human embryonic kidney 293 cells as described (Tillet et al., J. Biol. Chem. 272:10769-10776 (1997)). Recombinant NG2 diluted in phosphate buffered saline (PBS) (2 μg NG2/well) was coated onto microtiter wells overnight at 4° C. Wells were blocked with 2% bovine serum albumin (BSA) in PBS for 1 hr at room temperature. For biopanning, phage (1×10^11 TU) from a linear decapeptide phage library diluted in 2% BSA were added to NG2-coated wells and incubated for 2 hr at room temperature. Wells were washed with PBS containing 0.1% TWEEN-20 to remove unbound phage. Bound phage were recovered by direct infection of wells with exponentially growing K91kan bacteria, followed by phage amplification overnight at 37° C. Amplified phage were then subjected to four subsequent rounds of selection on NG2-coated wells. Phage binding was quantified by counting colonies from aliquots of phage-infected bacteria removed from NG2-coated wells. Phage were sequenced from randomly selected clones as described previously (Rajotte et al., J. Clin. Invest. […]:430-437 (1998)).
To identify peptide motifs capable of interacting with NG2, the recombinant NG2 fragments were used to select phage clones from a random decapeptide phage display library. Bound phage were isolated and used for successive rounds of panning on the NG2 proteoglycan. Five successive rounds of biopanning were performed. Random clones were sequenced from rounds II to V. Sequence analysis from the final three rounds of panning are shown in Table 1. In parentheses is the number of clones displaying the same sequence. The sequences shown in column III of Table 1 are referenced as SEQ ID NOS:1-15.

The test system of experiment [2] is NG2Δ3. Description: Solid-phase assay: binding of soluble NG2Δ3 to immobilized GST-peptide fusion proteins. On the set-up: species or system rat. The note with it: soluble fusion protein, increasing concentrations (50 mg in FIG. 4A). Here is the method:
Solid-phase assays were performed as described previously (Burg et al., supra, 1996). Briefly, fusion proteins (2 μg/well) were coated onto microtiter wells overnight at 4° C. Wells were blocked with 2% BSA in PBS and incubated with soluble NG2Δ3 (1 μg/well) for 2 hr at room temperature. After washing, wells were then incubated with an anti-NG2 polyclonal antibody followed by washing and incubation with an ^125I-labeled goat anti-rabbit IgG. After final washing, bound radioactivity was determined using a gamma counter. For competition studies, soluble NG2Δ3 was preincubated 15 min with increasing concentrations of soluble GST-fusion proteins prior to incubation on wells coated with GST-fusion protein.
The ability of soluble NG2 to bind to GST-TAASGVRSMH and GST-LTLRWVGLMS was tested by using a solid phase assay. Purified NG2Δ3 was incubated in wells coated with GST-TAASGVRSMH or GST-LTLRWVGLMS in the absence of inhibitor, or after preincubation with 50 mg of soluble GST-TAASGVRSMH, GST-LTLRWVGLMS or GST alone. Binding of NG2Δ3 was determined, and the results shown in FIG. 4 are representative of three independent experiments. Error bars show S.E.M. of the mean from triplicate wells. The differences indicated by “*” are considered significant by student t test (p<0.05). The differences indicated by “**” are considered highly significant by student t test (p<0.01).

In experiment [3] the test system is NG2Δ3. Description: Inhibition of phage binding to NG2Δ3-coated wells by GST-peptide fusion proteins. On the set-up: species or system rat. The note with it: increasing concentrations of GST protein; for effect on binding of TAASGVRSMH-phage to NG2 coated wells: FIG. 3A; for effect on binding of LTLRWVGLMS-phage to NG2: FIG. 3B. How it is done:
Binding of individual phage clones or an aliquot of unselected phage library control to NG2 or BSA-coated control wells was performed as described above using 1×10^9 input phage/well. For competition studies, phage incubations were performed in the presence of increasing concentrations of soluble NG2 or GST-fusion proteins.
GST-fusion proteins containing the decapeptide inserts were constructed as previously described (Rajotte et al., J. Clin. Invest. 102:430-437 (1998)). Briefly, peptide inserts were amplified by polymerase chain reaction (PCR) from the phage using specific M13 primers. PCR products were then digested with BamHI and EcoRI and inserted into the pGEX2TK vector. Fusion proteins were produced and purified according to the manufacturer's instructions (Pharmacia Biotech Inc.; Piscataway N.J.).
GST-peptide fusion proteins containing one of the two NG2-binding motifs, TAASGVRSMH (SEQ ID NO:1) or LTLRWVGLMS (SEQ ID NO:2), were tested for their ability to inhibit binding of phage to NG2Δ3-coated wells. Purified TAASGVRSMH-phage and LTLRWVGLMS-phage were incubated in NG2Δ3-coated wells in the presence of increasing concentrations of GST-TAASGVRSMH fusion protein, GST-LTLRWVGLMS fusion protein, or GST alone, and phage binding was quantified. Results shown in FIG. 3 are representative of three independent experiments and error bars show S.E.M. of the mean from triplicate platings of duplicate wells. The differences indicated by “*” are considered highly significant by student t test (p<0.01).

Where no end group is shown, it is not given here.

recombinant fragment of rat NG2 (NG2ECΔ3), sequence (Q00657 30-1450 limits assumed, stated change not applied): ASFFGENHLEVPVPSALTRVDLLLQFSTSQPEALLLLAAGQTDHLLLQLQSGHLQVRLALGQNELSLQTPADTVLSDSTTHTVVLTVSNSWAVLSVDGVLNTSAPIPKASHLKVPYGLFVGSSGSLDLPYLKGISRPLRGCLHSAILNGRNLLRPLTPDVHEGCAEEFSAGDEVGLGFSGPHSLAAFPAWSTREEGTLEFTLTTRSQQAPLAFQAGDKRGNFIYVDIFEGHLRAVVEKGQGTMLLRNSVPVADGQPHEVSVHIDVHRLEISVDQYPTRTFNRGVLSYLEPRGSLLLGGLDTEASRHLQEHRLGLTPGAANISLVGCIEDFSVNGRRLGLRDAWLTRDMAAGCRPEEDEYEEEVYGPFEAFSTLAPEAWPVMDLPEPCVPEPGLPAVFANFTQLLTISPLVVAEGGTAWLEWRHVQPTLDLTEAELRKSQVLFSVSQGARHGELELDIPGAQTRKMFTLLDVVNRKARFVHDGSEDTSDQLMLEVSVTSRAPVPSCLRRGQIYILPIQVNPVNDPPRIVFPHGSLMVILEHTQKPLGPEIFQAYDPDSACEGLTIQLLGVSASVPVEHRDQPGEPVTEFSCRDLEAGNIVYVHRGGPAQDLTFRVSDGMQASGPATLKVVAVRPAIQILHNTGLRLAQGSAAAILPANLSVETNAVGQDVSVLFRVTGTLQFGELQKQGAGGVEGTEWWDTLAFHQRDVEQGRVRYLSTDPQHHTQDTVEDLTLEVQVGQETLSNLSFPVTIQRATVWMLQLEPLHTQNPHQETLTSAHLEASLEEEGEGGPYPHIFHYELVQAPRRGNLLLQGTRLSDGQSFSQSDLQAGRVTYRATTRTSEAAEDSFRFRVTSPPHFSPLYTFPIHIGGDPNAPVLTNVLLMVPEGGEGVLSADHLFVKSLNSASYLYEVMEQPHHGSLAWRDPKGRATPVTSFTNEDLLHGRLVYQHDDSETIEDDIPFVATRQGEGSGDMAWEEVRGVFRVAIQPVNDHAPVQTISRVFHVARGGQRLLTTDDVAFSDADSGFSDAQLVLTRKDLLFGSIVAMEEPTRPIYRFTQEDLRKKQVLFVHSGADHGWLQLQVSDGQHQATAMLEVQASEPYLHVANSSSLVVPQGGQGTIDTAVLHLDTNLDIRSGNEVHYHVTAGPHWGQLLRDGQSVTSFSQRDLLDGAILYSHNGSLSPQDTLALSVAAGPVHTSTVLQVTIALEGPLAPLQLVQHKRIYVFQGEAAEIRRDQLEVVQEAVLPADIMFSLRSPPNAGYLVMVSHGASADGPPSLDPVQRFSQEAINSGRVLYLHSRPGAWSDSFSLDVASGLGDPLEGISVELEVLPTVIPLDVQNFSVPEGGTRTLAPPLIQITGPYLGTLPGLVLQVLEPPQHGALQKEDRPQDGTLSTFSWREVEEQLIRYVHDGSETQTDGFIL
NG2Δ3, sequence (Q00657 30-1450 limits assumed, stated change not applied): as above
NG2, sequence (Q00657 30-2326): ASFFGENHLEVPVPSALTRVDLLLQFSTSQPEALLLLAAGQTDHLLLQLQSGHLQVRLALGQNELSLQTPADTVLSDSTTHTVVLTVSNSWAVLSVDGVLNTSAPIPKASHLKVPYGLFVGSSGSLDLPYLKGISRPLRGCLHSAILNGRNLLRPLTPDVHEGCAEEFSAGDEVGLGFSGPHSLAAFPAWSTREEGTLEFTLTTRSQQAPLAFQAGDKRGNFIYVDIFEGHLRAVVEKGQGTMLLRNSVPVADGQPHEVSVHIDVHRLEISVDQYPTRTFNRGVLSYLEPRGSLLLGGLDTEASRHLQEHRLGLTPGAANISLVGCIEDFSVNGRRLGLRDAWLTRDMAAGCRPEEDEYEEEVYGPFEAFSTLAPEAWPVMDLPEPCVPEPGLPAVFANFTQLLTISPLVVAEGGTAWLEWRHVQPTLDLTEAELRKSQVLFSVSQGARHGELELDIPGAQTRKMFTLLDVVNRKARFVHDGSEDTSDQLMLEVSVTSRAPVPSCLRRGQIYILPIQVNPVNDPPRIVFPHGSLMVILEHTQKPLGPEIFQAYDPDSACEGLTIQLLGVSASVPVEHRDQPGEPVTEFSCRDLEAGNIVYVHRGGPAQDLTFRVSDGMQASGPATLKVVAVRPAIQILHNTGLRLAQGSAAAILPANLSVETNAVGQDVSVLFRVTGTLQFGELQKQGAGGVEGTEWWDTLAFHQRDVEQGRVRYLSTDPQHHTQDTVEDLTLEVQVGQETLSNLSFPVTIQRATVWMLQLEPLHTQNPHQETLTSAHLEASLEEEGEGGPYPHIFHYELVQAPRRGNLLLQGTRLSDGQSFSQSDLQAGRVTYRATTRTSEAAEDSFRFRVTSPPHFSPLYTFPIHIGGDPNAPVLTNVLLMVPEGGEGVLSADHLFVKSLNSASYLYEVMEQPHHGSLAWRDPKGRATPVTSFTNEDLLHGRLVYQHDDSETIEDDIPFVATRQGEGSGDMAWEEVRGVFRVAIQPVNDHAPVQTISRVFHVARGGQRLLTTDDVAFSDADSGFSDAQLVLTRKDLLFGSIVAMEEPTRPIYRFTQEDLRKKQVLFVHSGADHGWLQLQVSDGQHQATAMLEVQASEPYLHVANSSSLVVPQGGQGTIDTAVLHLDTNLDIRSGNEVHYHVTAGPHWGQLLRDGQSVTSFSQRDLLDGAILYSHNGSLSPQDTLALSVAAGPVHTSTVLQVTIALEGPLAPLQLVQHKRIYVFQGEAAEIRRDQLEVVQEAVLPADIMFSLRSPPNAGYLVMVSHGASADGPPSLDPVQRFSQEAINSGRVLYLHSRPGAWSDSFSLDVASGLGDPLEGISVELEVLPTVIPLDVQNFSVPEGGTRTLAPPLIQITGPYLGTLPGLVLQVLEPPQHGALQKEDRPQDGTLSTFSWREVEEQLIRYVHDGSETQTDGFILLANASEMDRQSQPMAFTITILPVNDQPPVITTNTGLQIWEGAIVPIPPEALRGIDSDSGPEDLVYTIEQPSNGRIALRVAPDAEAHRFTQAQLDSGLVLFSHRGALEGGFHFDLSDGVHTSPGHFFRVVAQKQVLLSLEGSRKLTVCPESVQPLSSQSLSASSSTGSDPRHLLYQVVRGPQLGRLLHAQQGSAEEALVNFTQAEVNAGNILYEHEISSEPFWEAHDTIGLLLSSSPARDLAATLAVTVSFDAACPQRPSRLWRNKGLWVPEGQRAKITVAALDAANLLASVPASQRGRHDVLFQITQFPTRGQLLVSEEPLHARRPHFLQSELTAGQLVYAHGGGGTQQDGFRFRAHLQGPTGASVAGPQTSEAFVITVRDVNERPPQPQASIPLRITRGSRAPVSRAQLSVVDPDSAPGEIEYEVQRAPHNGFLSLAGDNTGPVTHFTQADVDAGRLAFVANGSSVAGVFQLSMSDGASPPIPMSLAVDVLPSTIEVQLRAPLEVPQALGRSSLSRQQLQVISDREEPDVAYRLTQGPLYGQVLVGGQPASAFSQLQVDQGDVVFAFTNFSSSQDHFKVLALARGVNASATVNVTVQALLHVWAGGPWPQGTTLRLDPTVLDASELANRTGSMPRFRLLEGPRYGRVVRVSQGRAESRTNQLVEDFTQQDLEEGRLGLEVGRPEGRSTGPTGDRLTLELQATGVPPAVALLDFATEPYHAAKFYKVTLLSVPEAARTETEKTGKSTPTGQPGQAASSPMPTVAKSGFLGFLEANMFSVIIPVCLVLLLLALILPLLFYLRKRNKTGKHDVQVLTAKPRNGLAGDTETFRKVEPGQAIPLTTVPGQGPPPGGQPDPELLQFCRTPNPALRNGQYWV

For the substance CLSGSLSC, the “binding to NG2” value in the experiment with NG2 is “found to bind to NG2”.
As for GGGTRAGMKY, the “number of clones displaying the same sequence” value in experiment [1] (panning round III) was “GGGTRAGMKY (SEQ ID NO: 3) (2)”.
Consider “GST-LTLRWVGLMS: GST-fusion protein containing the decapeptide insert LTLRWVGLMS ({GST}-LTLRWVGLMS)”, for which the “effect of preincubation on binding of NG2 to wells coated with GST-TAASGVRSMH” value in the experiment with NG2Δ3 [2] is listed as “inhibited binding”. For the same substance, in the experiment on NG2Δ3 [3], the “effect on binding of TAASGVRSMH-phage to NG2 coated wells” value is listed as “inhibited” and the “effect on binding of LTLRWVGLMS-phage to NG2” value is reported as “inhibited the binding”.
In the same order, the values of “GST-TAASGVRSMH: GST-fusion protein containing the decapeptide insert TAASGVRSMH ({GST}-TAASGVRSMH)” are “dose-dependent decrease in binding”, “dose-dependent decrease in binding” and “inhibited the binding”.
As to LTLRWVGLMS, in experiment [1], the “selection/enrichment of NG2-binding sequences in in vitro panning” value is “specifically enriched in later rounds of in vitro panning”. The “number of clones displaying the same sequence” value in experiment [1] (panning round IV) is listed as “LTLRWVGLMS (10)”; in experiment [1] (panning round V), “LTLRWVGLMS (SEQ ID NO: 2) (7)”.
In the same order, the values of TAASGVRSMH are “specifically enriched in later rounds of in vitro panning”, “TAASGVRSMH (16)” and “TAASGVRSMH (SEQ ID NO: 1) (8)”.
For the substance “control GST protein: control GST protein containing no peptide insert [reference compound]”, in the experiment with NG2Δ3 [3], the “effect on binding of TAASGVRSMH-phage to NG2 coated wells” value is “little effect on binding” and the “effect on binding of LTLRWVGLMS-phage to NG2” value is given as “no significant effect on the binding”.

For the origin of these results see patent US6528481B1, “NG2/HM proteoglycan-binding peptides that home to angiogenic vasculature and related methods” (The Burnam Institute, priority 1999, dated 2003).
